According to US20260240913A1, “METHODS FOR PRODUCING STABLE HUMAN CHONDROCTYES AND THEIR USE FOR PROMOTING CARTILLAGE GROWTH AND REPAIR” (Cambridge Enterprise Limited, priority 2023, published 2026):

Tests used:
hBMSC/SSC organoids = experiment: Pan-ID inhibition in hBMSC/SSC organoids during chondrogenic differentiation, qRT-PCR of chondro-osteogenic genes; type: cell-based, human
Protocol: Chondrogenic Differentiation of hBMSCs/SSC-derived Organoids: To generate control organoids, 2.5×10^5 hBMSCs/SSCs (passage 2) were suspended in 1 mL chondrogenic medium—which consisted of high glucose Dulbecco's Modified Eagle Medium (DMEM) with sodium pyruvate (ThermoFisher, Cat. No. 11995073), 1% insulin-transferrin-selenium (ThermoFisher, Cat. No. 51500056), 100 nM dexamethasone, 50 ug/mL L-ascorbic acid phosphate magnesium salt n-hydrate, 1% penicillin/streptomycin, and 10 ng/mL TGFβ1 (Peprotech, Cat. No. 100-21)—in 14 mL conical tubes. The same process was employed to generate HyA-FMB organoids, except each conical tube contained 3 mg of pre-sterilized HyA-FMBs (70% ethanol washes overnight), which were constructed according to established protocols (Kuznetsov et al., Stem Cells Translational Medicine, 26, 586-592. //doi.org/10.1016/j.joca.2018.02.293, 2019). […]
qRT-PCR. […] Lysates were processed according to Qiagen's RNeasy Mini Kit with DNAse treatment (Cat. No. 74004), and RNA quality and concentration was measured using NanoDrop. cDNA was constructed using SuperScript III First-Strand Synthesis SuperMix (ThermoFisher, Cat. No. 11752050) with no Reverse Transcriptase added to negative controls. Samples were measured in triplicate using the Quantstudio 6 Flex system (Applied Biosystems), and ΔΔCT values were calculated using GAPDH as internal controls.

Hedgehog = settings: according to Wu et al. 2021; cited from earlier work
hBMSCs/SSCs = experiment: scRNA-seq of hBMSC/SSC organoids with or without HyA-FMBs during chondrogenic differentiation; type: cell-based, human; settings: day 10 of chondrogenic differentiation
Protocol: Chondrogenic Differentiation of hBMSCs/SSC-derived Organoids: To generate control organoids, 2.5×10^5 hBMSCs/SSCs (passage 2) were suspended in 1 mL chondrogenic medium—which consisted of high glucose Dulbecco's Modified Eagle Medium (DMEM) with sodium pyruvate (ThermoFisher, Cat. No. 11995073), 1% insulin-transferrin-selenium (ThermoFisher, Cat. No. 51500056), 100 nM dexamethasone, 50 ug/mL L-ascorbic acid phosphate magnesium salt n-hydrate, 1% penicillin/streptomycin, and 10 ng/mL TGFβ1 (Peprotech, Cat. No. 100-21)—in 14 mL conical tubes. […]
Control and HyA-FMB organoids from days 1-10 and ectopic HyA-FMB transplant were digested in high-glucose DMEM containing 0.2% collagenase II (ThermoFisher, Cat. No. 17101015), 0.1% hyaluronidase (Merck, Cat. No. H3506), and 0.1% dispase (Sigma, Cat. No. D4693) with gentle pipetting every 20-30 minutes. […] Only samples with >95% viability were submitted for single-cell capture, as measured by Vi-CELL BLU Cell Viability Analyzer (Beckman Coulter). […] Reads were mapped using GRCh38-2020-A reference transcriptome, and libraries were processed using Cell Ranger version 7.0. […] Differentially expressed genes, which represented at least 25% of each cluster (p<0.05), were analyzed using gProfiler (biit.cs.ut.ee/gprofiler/gost) for functional enrichment analysis and cell cluster annotation.

sclerotome cells = experiment: Chondrogenic differentiation of hiPSC-derived sclerotome cells (pellet cultures, chondrospheroids), staining and Incucyte imaging; type: cell-based, human; settings: pellet cultures from all sclerotome cells; 10 ng/mL each factor; across 42 days
Protocol: Staining Procedure. Paraffin-embedded tissues were used for immunofluorescence. Tissues were sectioned at 7 μm and heated for 1 hour at 60° C., then rehydrated in 2 washes of xylene (5 minutes), 100% ethanol (5 minutes), 95% ethanol (5 minutes), 70% ethanol (5 minutes), and distilled water (5 minute). Two different antigen retrieval methods were used: (1) for staining with COL1A1, COL2A1, COL10A1, PRG4, and hVIMENTIN, tissues were treated with 2 mg/mL hyaluronidase/PBS solution for 1 hour at 37° C., followed by a PBS wash and treatment with Pepsin (Millipore Sigma, Cat. No. R2283) for 5-10 minutes at 37° C.; (2) for staining with MGP, COMP, DPT, ACAN, and ALPL, tissues were incubated in citrate buffer (Millipore Sigma, Cat. No. C9999) for 1 hour at 70° C., followed by a 15-second wash with distilled water. Cytofix/Cytoperm buffer (BD, Cat. No. 554722) was used in some cases to enhance intracellular staining. Tissues were blocked in staining solution—PBS supplemented with 5% donkey serum (Sigma, Cat. No. D9663) and 0.5% IgePal (Sigma, Cat. No. I3021)—for 30 minutes, then stained with primary antibodies overnight at 4° C. […]
Confocal Imaging. […] Maximum intensity projections were merged in Fiji/Image J (National Institutes of Health) for image analysis and quantifications. […]

hBMSC/SSC = settings: chronic BMP blockade; Franco et al. 2022; cited from earlier work

CCC(=O)N(CCC(c1ccc2c(c1)OCO2)c1ccccc1OC)Cc1ccccc1 (stereo not drawn) [AGX51]
RUNX2, IBSP and COL1A1 (osteogenic) gene expression (hBMSC/SSC organoids; 30 μM AGX51 every 2-3 days for 28 days, qRT-PCR at days 3, 7, 14, 21, 28, versus vehicle): initial decrease in RUNX2 and IBSP expression at days 3 and 7, followed by an increase in RUNX2, IBSP, and COL1A1 expression from days 21-28 | chondrogenic gene expression (SOX9, ACAN, and COL2A1) (hBMSC/SSC organoids; 30 μM AGX51 for 28 days, qRT-PCR): initially decreased, but stabilized

c1ccc2c(Oc3nc(Nc4ccc(N5CCOCC5)cc4)c4ncn(C5CCCCC5)c4n3)cccc2c1 [purmorphamine]
suitability as Hedgehog agonist for sclerotome induction (Hedgehog): effective substitute for the commercially-synthesized Hedgehog agonist 21K

TGFβ1: transforming growth factor β1, recombinant growth factor in chondrogenic medium
IBSP+ cell populations (hBMSCs/SSCs): About 90% | matrix protein expression in sclerotome-derived pellet cultures (sclerotome cells): stable COL1A1 and COL2A1 expression across 42 days, with sporadic ACAN and minimal PRG4 expression

Cl.c1ccc2c(-c3cnn4cc(-c5ccc(N6CCNCC6)cc5)cnc34)ccnc2c1 [LDN 193189, 4-(6-(4-(piperazin-1-yl)phenyl)pyrazolo[1,5-a]pyrimidin-3-yl)quinoline hydrochloride]
hypertrophic expression (hBMSC/SSC): does not prevent hypertrophic expression
